Laboratory results reported in patent publication US20110053832A1, “NATURAL ANTIMICROBIAL COMPOSITION” (KRAFT FOODS GLOBAL BRANDS LLC, priority 2009, published 2011).

Assays:
Generic Yeast [1] = assay: Inoculation (challenge) study in creamy salad dressing, generic yeast; type: cell-based; details: creamy salad dressing emulsion; for Treatment Performance Generic Yeast LDIC (Log Difference in micro levels as compared to the Initial Count): negative values represent a degree of inhibition; for Treatment Performance Generic Yeast LDPC (Log Difference in micro levels as compared to the Positive Control without treatment): negative values represent degree of inhibition
Text: (§1) Turning now to the table, provided herein are formulations of a natural antimicrobial tested using a water continuous emulsion with a creamy texture and flavor, such as a creamy style salad dressing. It is noted that not only other types of water continuous emulsions, but also many other types of foods would also benefit from the antimicrobial nature of these formulations. As shown, the emulsion is standardized for a ratio of acid-to-moisture and salt-to-moisture values of a minimum of about 1.5 and about 4.8, respectively. When the emulsion was inoculated individually with cocktails of lactic acid bacteria, general yeast, or acid-tolerant yeast (such as Z. bailii) at approximately 4.0 logs, the emulsion spoils with microbial growth up to 7.0 logs. The overall pH of the present formulations can be anywhere from about 2.0 to about 6.0. Lower pH can often inhibit microbial growth, irrespective of other antimicrobial agents present. In the present formulations however, it was observed that the presence of antimicrobial agents such as cultured milks and/or organic acid salts were effective antimicrobial inhibitors, even at higher pH levels. High concentrations of undissociated organic acids can produce greater microbial inhibition. Increasing pH is associated with decreasing concentrations of undissociated acid. Thus, the microbial inhibition in a food that approaches a pH of 6.0 is unexpected.
(§2) The label LDPC indicates the Log Difference in micro levels as compared to the Positive Control without treatment (negative values represent degree of inhibition). The label LDIC indicates the Log Difference in micro levels as compared to the Initial Count or micro level of that treatment (negative values represent a degree of inhibition).
(§3) Two levels of Ca-Acetate alone and in combination with two levels of nisin and a nisin containing cultured ingredient were compared to determine their effect on typical spoilage (generic) yeast, the preservative resistant yeast, Z. bailii, and Lactobacillus.
(§4) Specifically, the samples were subjected to three different inocula (at log CFU 3-4) that contained microorganisms previously shown to spoil salad dressing. These included a cocktail of seven strains comprising various genera of yeast not known to be preservative resistant, a three strain cocktail of the preservative resistant Zygosaccharomyces bailii, and a three strain cocktail of Lactobacillus spp. (L. plantarum, L. fermentum, L. buchneri). The sample was then incubated at 22 degrees Celsius, and tested weekly for four weeks for the presence of these microorganisms.

Z. bailii = assay: Inoculation (challenge) study in creamy salad dressing, acid-tolerant yeast Z. bailii; type: cell-based, Zygosaccharomyces bailii; details: for inhibition of Z. bailii (in words): Experiments 1-4; for Treatment Performance Z. bailii LDIC (Log Difference in micro levels as compared to the Initial Count) / Treatment Performance Z. bailii LDPC (Log Difference in micro levels as compared to the Positive Control without treatment): creamy salad dressing emulsion; for Treatment Performance Z. bailii LDIC (Log Difference in micro levels as compared to the Initial Count): negative values represent a degree of inhibition; for Treatment Performance Z. bailii LDPC (Log Difference in micro levels as compared to the Positive Control without treatment): negative values represent degree of inhibition
Text: as §1, §2, §3, §4

Lactobacillus [2] = assay: Inoculation (challenge) study in creamy salad dressing, Lactobacillus / lactic acid bacteria; type: cell-based, Lactobacillus spp. (L. plantarum, L. fermentum, L. buchneri); details: for Treatment Performance Lactobacillus LDIC (Log Difference in micro levels as compared to the Initial Count) / Treatment Performance Lactobacillus LDPC (Log Difference in micro levels as compared to the Positive Control without treatment): creamy salad dressing emulsion; for Treatment Performance Lactobacillus LDIC (Log Difference in micro levels as compared to the Initial Count): negative values represent a degree of inhibition; for Treatment Performance Lactobacillus LDPC (Log Difference in micro levels as compared to the Positive Control without treatment): negative values represent degree of inhibition
Text: as §1, §2, §3, §4

Generic Yeast [3] = assay: Inoculation (challenge) study in creamy salad dressing, generic yeast; type: cell-based; details: Experiments 1-4
Lactobacillus [4] = assay: Inoculation (challenge) study in creamy salad dressing, Lactobacillus / lactic acid bacteria; type: cell-based, Lactobacillus spp. (L. plantarum, L. fermentum, L. buchneri); details: Experiments 1-4
[5] = listed as three percent Ca-Acetate
[6] = listed as Three percent Na-Acetate

Row | Molecule | Treatment Performance Generic Yeast LDIC (Log Difference in micro levels as compared to the Initial Count) (Generic Yeast [1]) | Treatment Performance Generic Yeast LDPC (Log Difference in micro levels as compared to the Positive Control without treatment) (Generic Yeast [1]) | Treatment Performance Z. bailii LDIC (Log Difference in micro levels as compared to the Initial Count) (Z. bailii) | Treatment Performance Z. bailii LDPC (Log Difference in micro levels as compared to the Positive Control without treatment) (Z. bailii) | Treatment Performance Lactobacillus LDIC (Log Difference in micro levels as compared to the Initial Count) (Lactobacillus [2]) | Treatment Performance Lactobacillus LDPC (Log Difference in micro levels as compared to the Positive Control without treatment) (Lactobacillus [2]) | further results
1 | CC(=O)[O-].CC(=O)[O-].[Ca+2] [3% Ca acetate, calcium (Ca) acetate] | −1 Log | −3 Log | 1.5 Log | 0.5 Log | −2.5 Log | −2.5 Log | Treatment Performance Generic Yeast LDIC (Log Difference in micro levels as compared to the Initial Count) (Generic Yeast [1]; listed as Ca acetate (high)): −2 Log; Treatment Performance Generic Yeast LDPC (Log Difference in micro levels as compared to the Positive Control without treatment) (Generic Yeast [1]; listed as Ca acetate (high)): −4 Log; inhibition of Z. bailii (in words) (Z. bailii; listed as 3 percent Ca-Acetate): needed to inhibit; inhibition of Z. bailii (in words) (Z. bailii; [5]): but not Z. bailii; Treatment Performance Z. bailii LDIC (Log Difference in micro levels as compared to the Initial Count) (Z. bailii; listed as Ca acetate (high)): 0.5 Log; Treatment Performance Z. bailii LDPC (Log Difference in micro levels as compared to the Positive Control without treatment) (Z. bailii; listed as Ca acetate (high)): −1.5 Log; inhibition of lactic acid bacteria / Lactobacillus (in words) (Lactobacillus [2]; Experiments 1-4): inhibited the growth; Treatment Performance Lactobacillus LDIC (Log Difference in micro levels as compared to the Initial Count) (Lactobacillus [2]; listed as Ca acetate (high)): 0.5 Log; Treatment Performance Lactobacillus LDPC (Log Difference in micro levels as compared to the Positive Control without treatment) (Lactobacillus [2]; listed as Ca acetate (high)): 1.5 Log; inhibition of general yeast (in words) (Generic Yeast [3]; [5]): inhibited the growth
2 | CC(=O)[O-].[Na+] [3% Na acetate, sodium (Na) acetate] | −3.5 Log | 0 Log | −0.5 Log | −2 Log | −3.5 Log | 0 Log | Treatment Performance Generic Yeast LDIC (Log Difference in micro levels as compared to the Initial Count) (Generic Yeast [1]; listed as 3% Na Ac): 1 Log; Treatment Performance Generic Yeast LDPC (Log Difference in micro levels as compared to the Positive Control without treatment) (Generic Yeast [1]; listed as 3% Na Ac): −0.5 Log; inhibition of Z. bailii (in words) (Z. bailii; listed as 3 percent Na-Acetate): significant antimycotic inhibition; inhibition of Z. bailii (in words) (Z. bailii; [6]): inhibited all of the tested spoilage organisms; Treatment Performance Z. bailii LDIC (Log Difference in micro levels as compared to the Initial Count) (Z. bailii; listed as 3% Na Ac): −1 Log; Treatment Performance Z. bailii LDPC (Log Difference in micro levels as compared to the Positive Control without treatment) (Z. bailii; listed as 3% Na Ac): −3 Log; inhibition of lactic acid bacteria / Lactobacillus (in words) (Lactobacillus [4]; listed as 3 percent Na-Acetate): did not inhibit; inhibition of lactic acid bacteria / Lactobacillus (in words) (Lactobacillus [4]; [6]): inhibited all of the tested spoilage organisms; inhibition of general yeast (in words) (Generic Yeast [3]; listed as 3 percent Na-Acetate): did not inhibit; inhibition of general yeast (in words) (Generic Yeast [3]; [6]): inhibited all of the tested spoilage organisms
3 | CC(=O)[O-].CC(=O)[O-].[Ca+2] [Ca acetate (mid), calcium (Ca) acetate] | −0.5 Log | −2.5 Log | 2 Log | 0.5 Log | −1.5 Log | −0.5 Log | inhibition of general yeast (in words) (Generic Yeast [3]; listed as 1.5 percent Ca-Acetate): needed to inhibit
4 | Nisin [Nisin (high)] | 3 Log | 1.5 Log | 2 Log | 0 Log | 0 Log | −2.5 Log | –
5 | Nisin [Nisin (mid)] | 3.5 Log | 1.5 Log | 2 Log | 0 Log | −1 Log | −2.5 Log | –
